Measurements from DBAASP.
≈ marks a conversion by molar mass, not a printed value. Each block holds one compound with its values, some of them ahead of it.

Tests used:
Assay in all cases: ≥ marks a high value that may be exact or a test limit, other limits are often not marked, values filed in µg/mL are converted to µM
Aeromonas salmonicida = system: Aeromonas salmonicida
Vibrio anguillarum = system: Vibrio anguillarum
[1] = system: Staphylococcus aureus ATCC 29213
[2] = system: Pseudomonas aeruginosa 15159
[3] = system: Pseudomonas aeruginosa ATCC 27853
[4] = system: Staphylococcus aureus FDA 486
[5] = system: Staphylococcus aureus 2844
Staphylococcus aureus MR = system: Staphylococcus aureus MR
Candida albicans = system: Candida albicans
[6] = system: Staphylococcus aureus ATCC 49476
Escherichia coli TOP 10 = system: Escherichia coli TOP 10
Escherichia coli W3110 = system: Escherichia coli W3110
[7] = system: Klebsiella pneumoniae ATCC BAA-1705
[8] = system: Staphylococcus aureus SH1000
[9] = system: Staphylococcus aureus NRS 72
[10] = system: Mycobacterium tuberculosis H37Ra
[11] = system: Escherichia coli DH5alpha
[12] = system: Staphylococcus aureus USA 300
[13] = system: Pseudomonas aeruginosa PAO1
Bacillus subtilis 168 = system: Bacillus subtilis 168
[14] = system: Candida albicans FRR 5580
[15] = system: Escherichia coli ATCC 25922
[16] = system: Pseudomonas aeruginosa ATCC 9027
[17] = system: Staphylococcus aureus ATCC 25923
[18] = system: Staphylococcus aureus NCTC 12981
[19] = system: Escherichia coli NCTC 10418
[20] = system: Staphylococcus aureus ATCC 43300
[21] = system: Salmonella enterica ATCC 6539
[22] = system: Klebsiella pneumoniae ATCC 700603
[23] = system: Enterococcus faecium ATCC 700221
[24] = system: Acinetobacter baumannii ATCC BAA-747

MIC [1]: 10 µM (≈ 22.2 µg/mL)
MIC [2]: 10 µM (≈ 22.2 µg/mL)
MIC [3]: 10 µM (≈ 22.2 µg/mL)
MIC [4]: 5 µM (≈ 11.1 µg/mL)
MIC [5]: 5 µM (≈ 11.1 µg/mL)
SMILES: CC[C@H](C)[C@H](NC(=O)[C@H](CCCN=C(N)N)NC(=O)[C@H](CCC(N)=O)NC(=O)[C@@H](NC(=O)[C@@H](NC(=O)[C@H](CCCN=C(N)N)NC(=O)[C@H](CCCCN)NC(=O)[C@H](Cc1ccccc1)NC(=O)[C@H](CCC(=O)O)NC(C)=O)[C@@H](C)CC)C(C)C)C(=O)N[C@@H](CCCCN)C(=O)N[C@@H](CC(=O)O)C(=O)N[C@@H](Cc1ccccc1)C(=O)N[C@@H](CC(C)C)C(=O)N[C@@H](CCCN=C(N)N)C(=O)N[C@@H](CC(N)=O)C(=O)N[C@@H](CC(C)C)C(=O)N[C@H](C(N)=O)C(C)C [EFKRIVQRIKDFLRNLV]

MIC [3]: 188 µM (≈ 512 µg/mL)
MIC (Staphylococcus aureus MR): ≥ 188 µM
MIC (Candida albicans): 47 µM (≈ 128 µg/mL)
MIC [6]: ≥ 188 µM
SMILES: CC[C@H](C)[C@H](NC(=O)[C@H](C)NC(=O)[C@H](CCCCN)NC(=O)CNC(=O)[C@H](C)NC(=O)[C@H](CO)NC(=O)[C@H](Cc1ccccc1)NC(=O)[C@H](CC(C)C)NC(=O)CNC(=O)CNC(=O)[C@@H](NC(=O)[C@@H](NC(=O)[C@H](Cc1cnc[nH]1)NC(=O)[C@@H](N)Cc1cnc[nH]1)[C@@H](C)CC)[C@@H](C)CC)C(=O)N[C@@H](Cc1cnc[nH]1)C(=O)N[C@@H](CCCN=C(N)N)C(=O)N[C@@H](CC(C)C)C(=O)N[C@H](C(=O)N[C@@H](CCCN=C(N)N)C(=O)N[C@@H](CCCN=C(N)N)C(=O)N[C@@H](CCCN=C(N)N)C(=O)N[C@@H](CCCN=C(N)N)C(=O)N[C@@H](CCCN=C(N)N)C(=O)O)[C@@H](C)CC [HHIIGGLFSAGKAIHRLIRRRRR]

MIC (Escherichia coli TOP 10): 10.7 µM (≈ 25 µg/mL)
SMILES: CC[C@H](C)[C@H](N)C(=O)N[C@@H](CC(C)C)C(=O)N1CCC[C@H]1C(=O)N[C@@H](CC(C)C)C(=O)N[C@@H](CC(C)C)C(=O)N[C@@H](CCCCN)C(=O)N[C@@H](CCCCN)C(=O)N[C@@H](Cc1ccccc1)C(=O)NCC(=O)N[C@@H](CCCCN)C(=O)N[C@@H](CCCCN)C(=O)N[C@@H](Cc1ccccc1)C(=O)NCC(=O)N[C@@H](CCCCN)C(=O)N[C@@H](CCCCN)C(=O)N[C@H](C(=O)N[C@@H](Cc1c[nH]c2ccccc12)C(=O)N[C@@H](CCCCN)C(=O)N[C@@H](C)C(=O)N[C@@H](CC(C)C)C(N)=O)C(C)C [ILPLLKKFGKKFGKKVWKAL]

MIC (Escherichia coli W3110): 16 µM (≈ 35.6 µg/mL)
MIC [7]: ≥ 128 µM
SMILES: CC[C@H](C)[C@H](N)C(=O)N[C@@H](CC(C)C)C(=O)N[C@@H](Cc1c[nH]c2ccccc12)C(=O)N[C@@H](C)C(=O)N[C@@H](CS)C(=O)N[C@@H](Cc1c[nH]c2ccccc12)C(=O)NCC(=O)N[C@@H](CC(C)C)C(=O)N[C@@H](CCCCN)C(=O)N[C@@H](CC(C)C)C(=O)N[C@@H](CC(C)C)C(=O)N[C@@H](CCCN=C(N)N)C(=O)N[C@@H](Cc1ccc(O)cc1)C(=O)N[C@@H](CCCN=C(N)N)C(=O)N[C@@H](CCCN=C(N)N)C(=O)N[C@H](C(=O)N[C@@H](Cc1ccc(O)cc1)C(=O)O)[C@@H](C)CC [ILWACWGLKLLRYRRIY]

The next lines start with the compound.

SMILES: CC(C)[C@H](NC(=O)[C@H](CCC(=O)O)NC(=O)[C@H](C)N)C(=O)N[C@@H](C)C(=O)N1CCC[C@H]1C(=O)N[C@@H](C)C(=O)N1CCC[C@H]1C(=O)N[C@@H](C)C(=O)N[C@@H](C)C(=O)N[C@@H](C)C(=O)N[C@@H](C)C(=O)N1CCC[C@H]1C(=O)N[C@@H](C)C(=O)N[C@@H](CCCCN)C(=O)N[C@@H](C)C(=O)N1CCC[C@H]1C(=O)N[C@@H](CCCCN)C(=O)N[C@@H](CCCCN)C(=O)N[C@@H](CCCCN)C(=O)N[C@@H](C)C(=O)N[C@@H](C)C(=O)N[C@@H](C)C(=O)N[C@@H](CCCCN)C(=O)N1CCC[C@H]1C(=O)N[C@@H](CCCCN)C(=O)N[C@@H](CCCCN)C(N)=O [AEVAPAPAAAAPAKAPKKKAAAKPKK]
MIC (Aeromonas salmonicida): ≥ 413 µM
MIC (Vibrio anguillarum): ≥ 413 µM

SMILES: CC[C@H](C)[C@H](NC(=O)[C@H](CC(=O)O)NC(=O)[C@H](Cc1ccccc1)NC(=O)[C@H](CC(C)C)NC(=O)[C@@H](N)CCCCN)C(=O)N[C@H](C(=O)N[C@@H](CCCCN)C(=O)N[C@@H](CCCCN)C(=O)N[C@H](C(=O)N[C@H](C(=O)NCC(=O)N[C@@H](C)C(=O)N[C@@H](CC(C)C)C(=O)NCC(N)=O)C(C)C)C(C)C)C(C)C [KLFDIVKKVVGALG]
MIC [8]: ≥ 100 µM

SMILES: CC(C)C[C@H](NC(=O)[C@H](Cc1c[nH]c2ccccc12)NC(=O)[C@H](CCCCN)NC(=O)[C@H](CCCN=C(N)N)NC(=O)[C@H](Cc1c[nH]c2ccccc12)NC(=O)[C@@H](NC(=O)CNC(=O)[C@@H](NC(=O)[C@H](Cc1c[nH]c2ccccc12)NC(=O)[C@H](CCCN=C(N)N)NC(=O)[C@H](CCCCN)NC(=O)[C@H](Cc1c[nH]c2ccccc12)NC(=O)[C@@H](N)CC(C)C)C(C)C)C(C)C)C(N)=O [LWKRWVGVWRKWL]
MIC [9]: 5 µM (≈ 9.06 µg/mL)
MIC [10]: 20 µM (≈ 36.2 µg/mL)
MIC [11]: 10 µM (≈ 18.1 µg/mL)
MIC [12]: 7 µM (≈ 12.7 µg/mL)
MIC [13]: 20 µM (≈ 36.2 µg/mL)
MIC (Bacillus subtilis 168): 0.6 µM (≈ 1.09 µg/mL)

SMILES: NC(=O)[C@H](CCCN=C(N)N)NC(=O)[C@H](CCCN=C(N)N)NC(=O)[C@H](Cc1c[nH]c2ccccc12)NC(=O)[C@H](Cc1c[nH]c2ccccc12)NC(=O)[C@H](CCCN=C(N)N)NC(=O)[C@H](Cc1c[nH]c2ccccc12)NC(=O)[C@H](Cc1c[nH]c2ccccc12)NC(=O)[C@H](CCCN=C(N)N)NC(=O)[C@H](Cc1c[nH]c2ccccc12)NC(=O)[C@H](CCCN=C(N)N)NC(=O)[C@H](CCCN=C(N)N)NC(=O)[C@H](CCCN=C(N)N)NC(=O)[C@@H](N)CCCN=C(N)N [RRRRWRWWRWWRR]
MIC [14]: ≥ 114 µM
MIC [15]: 29.1 µM (≈ 64 µg/mL)
MIC [16]: 29.1 µM (≈ 64 µg/mL)
MIC [17]: 29.1 µM (≈ 64 µg/mL)

SMILES: NCCCC[C@H](NC(=O)[C@H](Cc1c[nH]c2ccccc12)NC(=O)[C@H](CCCCN)NC(=O)[C@@H](N)Cc1c[nH]c2ccccc12)C(=O)N[C@@H](Cc1c[nH]c2ccccc12)C(N)=O [WKWKW]
MIC [18]: ≥ 154 µM
MIC [19]: ≥ 154 µM

SMILES: NC(=O)[C@H](CCCN=C(N)N)NC(=O)[C@H](CS)NC(=O)[C@H](Cc1ccc(O)cc1)NC(=O)[C@H](Cc1c[nH]c2ccccc12)NC(=O)[C@H](CCCN=C(N)N)NC(=O)[C@@H](N)Cc1c[nH]c2ccccc12 [WRWYCR]
MIC [20]: 66 µM (≈ 63.9 µg/mL)
MIC [21]: 8 µM (≈ 7.75 µg/mL)
MIC [15]: 17 µM (≈ 16.5 µg/mL)
MIC [3]: 33 µM (≈ 31.9 µg/mL)
MIC [22]: 66 µM (≈ 63.9 µg/mL)
MIC [23]: 8 µM (≈ 7.75 µg/mL)
MIC [24]: ≥ 132 µM
